Several values for one entry are separate records, joined by “and”; a condition that tells them apart may be missing. Equal values may be shown once.
Tests used:
Format in all cases: cell-based
NCI-460 = assay: NCI human tumor cell line screen, Lung-NSC NCI-460; details: for GI-50 / TGI: Human cancer cell; for LC-50: Human cancer cells
Description: (§1) Current research in the control of cancer in the United States is coordinated by the National Cancer Institute (NCI). To determine whether a substance has anti-cancer properties, the NCI has established a systematic protocol. […] The protocol, and the established statistical means for analyzing the results obtained by the standardized testing are fully described in the literature. See: Body, Dr. Michael R., Principles & Practice of Oncology, PPO Updates, Volume 3, Number 10, October 1989, for an in depth description of the testing protocol; and Paull, K. D., "Display and Analysis of Patterns of Differential Activity of Drugs Against Human Tumor Cell Lines; Development of Mean Graph and COMPARE Algorithm", Journal of the National Cancer Institute Reports, Vol. 81, No. 14, Page 1088, Jul. 14, 1989 for a description of the methods of statistical analysis. Both of these references are incorporated herein by this reference thereto.

OVCAR-3 = assay: NCI human tumor cell line screen, ovarian OVCAR-3; details: for GI-50 / TGI: Human cancer cell; for LC-50: Human cancer cells
Description: as §1

P-388 = assay: Murine P388 lymphocytic leukemia cell growth inhibition; details: Mouse leukemia cell P-388
Description: (§2) The extraordinary inhibition of cell growth shown by the tetrapeptide 6a-k against six major types of human cancer and against the murine P388 lymphocytic leukemia cell line has been presented in Table 1-2, below.

SF-295 = assay: NCI human tumor cell line screen, CNS SF-295; details: for GI-50 / TGI: Human cancer cell; for LC-50: Human cancer cells
Description: (§3) Current research in the control of cancer in the United States is coordinated by the National Cancer Institute (NCI). To determine whether a substance has anti-cancer properties, the NCI has established a systematic protocol. This protocol, which involves the testing of a substance against a standard cell line panel containing 60 human tumor cell lines, has been verified and has been accepted in scientific circles. The protocol, and the established statistical means for analyzing the results obtained by the standardized testing are fully described in the literature. See: Body, Dr. Michael R., Principles & Practice of Oncology, PPO Updates, Volume 3, Number 10, October 1989, for an in depth description of the testing protocol; and Paull, K. D., "Display and Analysis of Patterns of Differential Activity of Drugs Against Human Tumor Cell Lines; Development of Mean Graph and COMPARE Algorithm", Journal of the National Cancer Institute Reports, Vol. 81, No. 14, Page 1088, Jul. 14, 1989 for a description of the methods of statistical analysis. Both of these references are incorporated herein by this reference thereto.
as §2

KM20L2 = assay: NCI human tumor cell line screen, colon KM20L2; details: for GI-50 / TGI: Human cancer cell; for LC-50: Human cancer cells
Description: as §1

SK-MEL-3 = assay: NCI human tumor cell line screen, melanoma SK-MEL-3; details: for GI-50 / TGI: Human cancer cell; for LC-50: Human cancer cells
Description: as §3, §2

A498 = assay: NCI human tumor cell line screen, renal A498; details: for GI-50 / TGI: Human cancer cell; for LC-50: Human cancer cells
Description: as §1

Substance: [2S-[1[1R*(R*),2S*],2R*[1S*,2S*]]]-N,N-dimethyl-L-valyl-N-[2-methoxy-4-[2-[1-methoxy-2-methyl-3-oxo-3-[[2-(2-chlor-phenyl)-ethyl]amino]propyl]-1-pyrrolidinyl-1-(methylpropyl)-4-oxo butyl]-N-methyl-L-valineamide [Peptide 6g]
- GI-50 (NCI-460): < 0.000001 µg/mL
- TGI (NCI-460): 0.11 ng/mL
- LC-50 (NCI-460): > 0.01 µg/mL
- GI-50 (OVCAR-3): < 0.000001 µg/mL
- TGI (OVCAR-3): < 0.001 ng/mL
- LC-50 (OVCAR-3): > 0.01 µg/mL
- ED-50 (P-388): 0.000289 µg/mL
- GI-50 (SF-295): < 0.000001 µg/mL
- TGI (SF-295): > 10 ng/mL
- LC-50 (SF-295): > 0.01 µg/mL
- GI-50 (KM20L2): < 0.000001 µg/mL
- TGI (KM20L2): 0.38 ng/mL
- LC-50 (KM20L2): > 0.01 µg/mL
- GI-50 (SK-MEL-3): < 0.000001 µg/mL
- TGI (SK-MEL-3): > 10 ng/mL
- LC-50 (SK-MEL-3): > 0.01 µg/mL
- GI-50 (A498): < 0.000001 µg/mL
- TGI (A498): 2 ng/mL
- LC-50 (A498): > 0.01 µg/mL

Substance: [2S-[1[1R*(R*),2S*],2R*[1S*,2S*,3(1S*, 2S*)]]]-N,N-dimethyl-L-valyl-N-[2-methoxy-4-[2-[1-methoxy-2- methyl-3-oxo-3-[[1-phenyl-1-hydroxy-2-propyl]methylamino]propyl]- 1-pyrrolidinyl-1-(methylpropyl)-4-oxobutyl]-N-methyl-L-valineamide valineamide [Peptide 6h]
- GI-50 (NCI-460): 0.00006 µg/mL
- TGI (NCI-460): 0.11 ng/mL
- LC-50 (NCI-460): > 0.01 µg/mL
- LC-50 (OVCAR-3): > 0.01 µg/mL
- GI-50 (SF-295): 0.00031 µg/mL and 0.00034 µg/mL
- TGI (SF-295): > 10 ng/mL
- LC-50 (SF-295): > 0.01 µg/mL
- TGI (KM20L2): 0.52 ng/mL
- LC-50 (KM20L2): > 0.01 µg/mL
- TGI (SK-MEL-3): > 10 ng/mL
- LC-50 (SK-MEL-3): > 0.01 µg/mL
- TGI (A498): > 10 ng/mL and 9.7 ng/mL
- LC-50 (A498): > 0.01 µg/mL

Substance: [2S-[1 [1R*(R*),2S*],2R*[1S*, 2S*]]]-N,N-dimethyl-L-valyl-N-[2-methoxy-4-[2-[1-methoxy-2-methyl-3-oxo-3- [[2-(4-chlor-phenyl)-etthyl]amino]propyl]-1-pyrrolidinyl-1-(methylpropyl)-4-oxo butyl]-N-methyl-L-valineamide [Peptide 6d]
- GI-50 (NCI-460): 0.000025 µg/mL
- TGI (NCI-460): 0.14 ng/mL
- LC-50 (NCI-460): > 0.0001 µg/mL
- GI-50 (OVCAR-3): 0.000016 µg/mL
- TGI (OVCAR-3): 0.05 ng/mL
- LC-50 (OVCAR-3): 0.00096 µg/mL
- ED-50 (P-388): 0.00372 µg/mL
- GI-50 (SF-295): 0.000046 µg/mL
- TGI (SF-295): > 10 ng/mL
- LC-50 (SF-295): > 0.0001 µg/mL
- GI-50 (KM20L2): 0.00033 µg/mL
- TGI (KM20L2): 2.9 ng/mL
- LC-50 (KM20L2): > 0.0001 µg/mL
- GI-50 (SK-MEL-3): 0.000044 µg/mL
- TGI (SK-MEL-3): > 10 ng/mL
- LC-50 (SK-MEL-3): > 0.0001 µg/mL
- GI-50 (A498): 0.000059 µg/mL
- TGI (A498): 2.8 ng/mL
- LC-50 (A498): > 0.0001 µg/mL

Substance: [2S-[1 [1R*(R*),2S*],2R*[1S*,2S*]]]-N,N-dimethyl-L-valyl-N-[2-methoxy-4-[2-[1-methoxy-2-methyl-3-oxo-3-[[2-(4-bromo-phenyl)-ethyl]amino]propyl]-1-pyrrolidinyl-l-(methylpropyl)-4-oxo butyl]-N-methyl-L-valineamide [Peptide 6e]
- GI-50 (NCI-460): 0.00027 µg/mL
- TGI (NCI-460): 1.2 ng/mL
- LC-50 (NCI-460): > 0.01 µg/mL
- GI-50 (OVCAR-3): 0.00015 µg/mL
- TGI (OVCAR-3): 0.5 ng/mL
- LC-50 (OVCAR-3): 0.0094 µg/mL
- ED-50 (P-388): 0.00515 µg/mL
- GI-50 (SF-295): 0.00043 µg/mL
- TGI (SF-295): > 10 ng/mL
- LC-50 (SF-295): > 0.01 µg/mL
- GI-50 (KM20L2): 0.00032 µg/mL
- TGI (KM20L2): 4.1 ng/mL
- LC-50 (KM20L2): > 0.01 µg/mL
- GI-50 (SK-MEL-3): 0.00038 µg/mL
- TGI (SK-MEL-3): > 10 ng/mL
- LC-50 (SK-MEL-3): > 0.01 µg/mL
- GI-50 (A498): 0.00046 µg/mL
- TGI (A498): > 10 ng/mL
- LC-50 (A498): > 0.01 µg/mL

Substance: [2S-[1[1R*(R*),2S],2R*[1S*,2S*]]]-N,N-dimethyl-L-valyl-N-[2-methoxy-4-[2-[1-methoxy-2-methyl-3-oxo-3-[[2-(3,4-dimethoxy-phenyl)-ethyl]amino]propyl]-1- pyrrolidinyl-1-(methylpropyl)-4-oxobutyl]-N-methyl-L-valineamide [Peptide 6a]
- GI-50 (NCI-460): 0.000031 µg/mL
- TGI (NCI-460): 0.094 ng/mL
- LC-50 (NCI-460): > 0.0001 µg/mL
- GI-50 (OVCAR-3): 0.000007 µg/mL
- TGI (OVCAR-3): 0.061 ng/mL
- LC-50 (OVCAR-3): > 0.0001 µg/mL
- ED-50 (P-388): 0.0035 µg/mL
- GI-50 (SF-295): 0.000029 µg/mL
- TGI (SF-295): 0.083 ng/mL
- LC-50 (SF-295): > 0.0001 µg/mL
- GI-50 (KM20L2): 0.000025 µg/mL
- TGI (KM20L2): 0.061 ng/mL
- LC-50 (KM20L2): > 0.0001 µg/mL
- GI-50 (SK-MEL-3): 0.000018 µg/mL
- TGI (SK-MEL-3): 0.058 ng/mL
- LC-50 (SK-MEL-3): > 0.0001 µg/mL
- GI-50 (A498): 0.000016 µg/mL
- TGI (A498): > 0.1 ng/mL
- LC-50 (A498): > 0.0001 µg/mL

Substance: [2S-[1[1R*(R*),2S*],2R*[1S*,2S*, 3(1R*, 2S*)]]]-N,N-dimethyl-L-valyl-N-[2-methoxy-4-[2-[1-methoxy-2- methyl-3-oxo-3-[[1-phenyl-1-hydroxy-2-propyl]amino]propyl]-1-pyrrolidinyl- 1-(methylpropyl)-4-oxobutyl]-N-methyl-L-valine amide [Peptide 6i]
- GI-50 (NCI-460): 0.000025 µg/mL
- TGI (NCI-460): > 10 ng/mL
- LC-50 (NCI-460): > 0.01 µg/mL
- GI-50 (OVCAR-3): 0.000021 µg/mL
- TGI (OVCAR-3): 0.042 ng/mL
- LC-50 (OVCAR-3): 0.000088 µg/mL
- ED-50 (P-388): 0.000503 µg/mL
- GI-50 (SF-295): 0.000016 µg/mL
- TGI (SF-295): 0.24 ng/mL
- LC-50 (SF-295): > 0.01 µg/mL
- GI-50 (KM20L2): 0.00011 µg/mL
- TGI (KM20L2): 7 ng/mL
- LC-50 (KM20L2): > 0.01 µg/mL
- GI-50 (SK-MEL-3): 0.00058 µg/mL
- TGI (SK-MEL-3): > 10 ng/mL
- LC-50 (SK-MEL-3): > 0.01 µg/mL
- GI-50 (A498): 0.0000027 µg/mL
- TGI (A498): 0.0086 ng/mL
- LC-50 (A498): 0.00029 µg/mL

Substance: [2S-[1[1R*(R*),2S*],2R*[1S*,2S*]]]-N,N-dimethyl-L-valyl-N-[2-methoxy-4-[2- [1-methoxy-2-methyl-3-oxo-3-[[2-(3-chlor-phenyl)-ethyl]amino]propyl]-1-pyrrolidinyl-1-(methylpropyl)-4-oxo butyl]-N-methyl-L-valineamide [Peptide 6f]
- GI-50 (NCI-460): < 0.000001 µg/mL
- TGI (NCI-460): 0.1 ng/mL
- LC-50 (NCI-460): > 0.01 µg/mL
- GI-50 (OVCAR-3): < 0.000001 µg/mL
- TGI (OVCAR-3): < 0.001 ng/mL
- LC-50 (OVCAR-3): 0.00076 µg/mL
- ED-50 (P-388): 0.00225 µg/mL
- GI-50 (SF-295): 0.000028 µg/mL
- TGI (SF-295): > 10 ng/mL
- LC-50 (SF-295): > 0.01 µg/mL
- GI-50 (KM20L2): 0.0000007 µg/mL
- TGI (KM20L2): 1.7 ng/mL
- LC-50 (KM20L2): > 0.01 µg/mL
- GI-50 (SK-MEL-3): < 0.000001 µg/mL
- TGI (SK-MEL-3): > 10 ng/mL
- LC-50 (SK-MEL-3): > 0.01 µg/mL
- GI-50 (A498): < 0.000001 µg/mL
- TGI (A498): 1.7 ng/mL
- LC-50 (A498): > 0.01 µg/mL

— US5635483A, “Tumor inhibiting tetrapeptide bearing modified phenethyl amides” (priority 1992, dated 1997)
